Assay results: ChEMBL document CHEMBL1201862, “PubChem BioAssay data set” (2004)
Active and inactive are the calls of the source.

Experiments:
[1] = target: T1, Mucolipin-3 (Homo sapiens, UniProt Q8TDD5); assay: Dose response cell-based high-throughput screening assay for agonists of the transient receptor potential channel ML3 (TRPML3). [Related pubchem assays: 1526, 1424, 1448 ]; type: functional
T1 sequence (Q8TDD5 whole entry): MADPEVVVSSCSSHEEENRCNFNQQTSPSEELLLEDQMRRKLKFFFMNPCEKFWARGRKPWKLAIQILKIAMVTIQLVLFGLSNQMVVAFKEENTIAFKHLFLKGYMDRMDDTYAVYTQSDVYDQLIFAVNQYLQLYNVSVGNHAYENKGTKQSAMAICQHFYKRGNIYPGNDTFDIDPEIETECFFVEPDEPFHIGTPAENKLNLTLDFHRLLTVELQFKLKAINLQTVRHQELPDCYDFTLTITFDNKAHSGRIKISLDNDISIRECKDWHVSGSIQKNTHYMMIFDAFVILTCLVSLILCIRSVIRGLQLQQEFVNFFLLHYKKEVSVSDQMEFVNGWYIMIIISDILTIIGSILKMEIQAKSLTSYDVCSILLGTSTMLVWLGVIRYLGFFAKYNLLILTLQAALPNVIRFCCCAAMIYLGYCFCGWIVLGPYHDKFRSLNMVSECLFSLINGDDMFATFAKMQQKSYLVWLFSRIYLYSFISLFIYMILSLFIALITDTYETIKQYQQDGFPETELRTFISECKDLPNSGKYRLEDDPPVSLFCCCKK

[2] = target: Ion channel NompC (Danio rerio, UniProt Q7T1G6); assay: Fluorescence counterscreen assay for TRPML3 agonists: dose response cell-based high-throughput screening assay to identify agonists of the transient receptor potential channel N1 (TRPN1). [Related pubchem assays: 1526, 1424, 1448 ]; type: functional
[3] = Luminescence Cell-Based Dose Retest to Confirm Inhibitors of Cancer Stem Cells. [Related pubchem assays (depositor defined):AID2717, AID2721]; type: functional; conditions: Homo sapiens
[4] = target: Disintegrin and metalloproteinase domain-containing protein 17 (Homo sapiens, UniProt P78536); assay: inhibition of ADAM17 substrate cleavage – biochemical, quenched FRET substrate, counter-screen for ADAM10 exosite inhibitor project, dose response (AID 743253)
[5] = target: Potassium channel subfamily K member 9 (Homo sapiens, UniProt Q9NPC2); assay: KCNK9 flux blockade, concentration-response – cell-based, FluxOR thallium flux, selectivity assay for TASK1 inhibitor project, SAR follow-up (AID 652211); type: functional;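 further: potency is for inhibitors of the channel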
[6] = target: Potassium channel subfamily K member 3 (Rattus norvegicus, UniProt O54912); assay: SAR analysis for the identification of selective inhibitors of the two-pore domain potassium channel TASK1(KCNK3):Automated Electrophysiology.; type: functional
[7] = target: Potassium channel subfamily K member 3 (Homo sapiens, UniProt O14649); assay: inhibition of human KCNK3 channel flux – CHO cells, FluxOR thallium flux, SAR follow-up (AID 652212); type: functional
[8] = target: Paired box protein Pax-8 (Homo sapiens, UniProt Q06710); assay: PAX8 transcriptional activity inhibition in RMG-I – RMG-I cells, luciferase, cherry-pick, dose response (AID 687027); type: functional, cell-based;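 further: luciferase reporter driven by Pax8 target thyroperoxidase promoter measured by SteadyGlo luminescence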
[9] = A2780 cell killing – plate reader, dry powder samples, cytotoxicity control, dose response (AID 743046); type: functional, cell-based
[10] = OVCAR-3 cell viability loss – plate reader, dry powder samples, PAX8 inhibitor project, dose response (AID 743044); type: functional, cell-based
[11] = IGROV1 cell killing – plate reader, dry powder samples, PAX8 inhibitor project, dose response (AID 743043); type: functional, cell-based; conditions: IGROV-1
[12] = OVCAR8 cell viability loss – plate reader, dry powder samples, PAX8 project, dose response (AID 743197); type: functional, cell-based; conditions: OVCAR-8
[13] = anti-trypanosomal activity in BESM host cells – imaging, CA-I/72 strain, bovine embryo skeletal muscle, dry powder, dose response (AID 651885); type: functional, cell-based
[14] = Trypanosoma cruzi growth suppression in host cells – NIH3T3 host cells, beta-gal luminescence, confirmation (AID 2044); type: functional, cell-based;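 further: intracellular parasites grown in NIH/3T3 mouse fibroblasts as host cells; luminescent beta-galactosidase reporter signal from transgenic T. cruzi replicating inside host cells; inhibitors lower the luminescence signal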
[15] = NIH3T3 cell viability loss – ATP luminescence, mouse fibroblasts, counter-screen, dose response (AID 2010); type: functional, cell-based;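 further: cells exposed to compound for about 90 hours before reading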
[16] = target: T2, Exodeoxyribonuclease V (Escherichia coli (strain K12), UniProt P04993+P07648+P08394); assay: RecBCD inhibition via phage-restricted bacterial growth – absorbance, V66 E. coli, mutant T4 phage, counter-screen for AddAB inhibitor project, dose response (AID 492957); type: functional, cell-based, Escherichia coli str. K-12 substr. MG1655
T2 sequence (P04993 whole entry): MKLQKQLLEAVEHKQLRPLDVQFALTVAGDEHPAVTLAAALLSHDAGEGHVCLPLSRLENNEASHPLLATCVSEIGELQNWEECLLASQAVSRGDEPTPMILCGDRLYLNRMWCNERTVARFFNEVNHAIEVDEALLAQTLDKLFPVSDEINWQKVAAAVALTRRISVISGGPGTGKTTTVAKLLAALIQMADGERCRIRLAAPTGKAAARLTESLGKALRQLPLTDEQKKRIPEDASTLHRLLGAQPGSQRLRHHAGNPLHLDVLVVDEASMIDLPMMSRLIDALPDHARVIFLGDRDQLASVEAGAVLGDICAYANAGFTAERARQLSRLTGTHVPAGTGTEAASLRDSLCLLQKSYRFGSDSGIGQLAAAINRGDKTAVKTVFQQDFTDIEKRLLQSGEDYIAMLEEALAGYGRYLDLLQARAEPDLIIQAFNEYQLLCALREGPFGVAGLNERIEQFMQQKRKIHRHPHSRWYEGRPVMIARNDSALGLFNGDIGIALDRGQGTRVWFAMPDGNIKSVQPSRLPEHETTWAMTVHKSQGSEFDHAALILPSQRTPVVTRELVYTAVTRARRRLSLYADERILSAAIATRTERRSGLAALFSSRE
T2 sequence (P07648 whole entry): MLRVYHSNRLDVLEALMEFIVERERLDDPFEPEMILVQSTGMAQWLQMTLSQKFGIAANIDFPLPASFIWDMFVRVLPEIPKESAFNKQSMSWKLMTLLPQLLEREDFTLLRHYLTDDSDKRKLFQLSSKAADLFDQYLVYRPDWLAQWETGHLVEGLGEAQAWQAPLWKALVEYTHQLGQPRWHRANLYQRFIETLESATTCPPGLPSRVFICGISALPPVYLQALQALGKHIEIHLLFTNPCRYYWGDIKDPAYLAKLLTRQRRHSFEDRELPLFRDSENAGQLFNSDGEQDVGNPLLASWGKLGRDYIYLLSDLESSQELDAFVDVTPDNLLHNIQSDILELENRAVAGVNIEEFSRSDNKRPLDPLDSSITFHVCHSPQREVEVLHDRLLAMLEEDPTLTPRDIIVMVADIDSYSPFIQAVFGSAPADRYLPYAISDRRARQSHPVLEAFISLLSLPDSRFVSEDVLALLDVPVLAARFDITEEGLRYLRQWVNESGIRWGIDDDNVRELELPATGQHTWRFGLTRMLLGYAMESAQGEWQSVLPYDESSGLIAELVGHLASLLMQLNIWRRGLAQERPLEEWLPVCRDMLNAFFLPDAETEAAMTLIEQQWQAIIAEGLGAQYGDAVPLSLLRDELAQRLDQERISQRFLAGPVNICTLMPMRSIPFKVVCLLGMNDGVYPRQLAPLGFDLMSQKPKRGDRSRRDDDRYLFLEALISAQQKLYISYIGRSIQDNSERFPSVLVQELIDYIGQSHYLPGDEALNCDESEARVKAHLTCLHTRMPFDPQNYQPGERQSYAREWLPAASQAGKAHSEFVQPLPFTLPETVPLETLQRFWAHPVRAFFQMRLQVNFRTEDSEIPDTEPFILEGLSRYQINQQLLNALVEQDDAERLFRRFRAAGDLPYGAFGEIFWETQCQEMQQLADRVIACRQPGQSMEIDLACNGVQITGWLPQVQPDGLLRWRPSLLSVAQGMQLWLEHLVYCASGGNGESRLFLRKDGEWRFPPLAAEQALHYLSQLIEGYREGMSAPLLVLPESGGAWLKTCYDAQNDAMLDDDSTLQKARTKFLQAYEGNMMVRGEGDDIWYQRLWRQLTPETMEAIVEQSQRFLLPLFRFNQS
T2 sequence (P08394 whole entry): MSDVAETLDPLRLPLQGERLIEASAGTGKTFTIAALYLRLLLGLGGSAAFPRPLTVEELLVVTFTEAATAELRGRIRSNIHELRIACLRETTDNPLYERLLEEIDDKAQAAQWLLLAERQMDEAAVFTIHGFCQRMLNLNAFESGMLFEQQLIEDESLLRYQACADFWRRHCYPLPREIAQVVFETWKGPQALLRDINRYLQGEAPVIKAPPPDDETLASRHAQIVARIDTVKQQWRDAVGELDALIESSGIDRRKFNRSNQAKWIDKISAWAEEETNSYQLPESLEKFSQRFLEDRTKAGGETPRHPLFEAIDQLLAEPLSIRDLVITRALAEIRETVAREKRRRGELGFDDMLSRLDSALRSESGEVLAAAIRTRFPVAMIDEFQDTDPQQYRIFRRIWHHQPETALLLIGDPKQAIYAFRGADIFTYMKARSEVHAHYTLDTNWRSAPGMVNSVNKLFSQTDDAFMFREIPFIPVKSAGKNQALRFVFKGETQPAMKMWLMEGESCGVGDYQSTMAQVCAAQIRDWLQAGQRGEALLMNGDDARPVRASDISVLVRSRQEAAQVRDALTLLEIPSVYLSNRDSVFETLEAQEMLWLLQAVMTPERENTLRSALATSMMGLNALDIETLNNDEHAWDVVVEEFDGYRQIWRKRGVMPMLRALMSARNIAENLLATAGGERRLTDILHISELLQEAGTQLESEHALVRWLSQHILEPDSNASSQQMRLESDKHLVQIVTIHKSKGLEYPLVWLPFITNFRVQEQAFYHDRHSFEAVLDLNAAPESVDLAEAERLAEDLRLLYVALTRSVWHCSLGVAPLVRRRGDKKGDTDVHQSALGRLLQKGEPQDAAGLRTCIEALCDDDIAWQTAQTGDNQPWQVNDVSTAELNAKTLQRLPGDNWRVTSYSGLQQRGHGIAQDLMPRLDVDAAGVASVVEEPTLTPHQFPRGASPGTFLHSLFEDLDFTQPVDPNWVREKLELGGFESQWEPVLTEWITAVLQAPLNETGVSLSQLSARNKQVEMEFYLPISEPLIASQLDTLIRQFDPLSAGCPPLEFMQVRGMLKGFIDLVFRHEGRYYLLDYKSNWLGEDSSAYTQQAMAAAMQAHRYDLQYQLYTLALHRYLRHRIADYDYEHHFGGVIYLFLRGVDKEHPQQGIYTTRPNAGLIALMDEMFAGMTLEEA

[17] = target: Nonstructural protein 1 (Influenza A virus, UniProt Q194T2); type: functional, Influenza A virus (A/California/07/2009(H1N1))
[18] = Counterscreen for AddAB inhibitors: absorbance-based bacterial cell-based high throughput dose response assay for inhibitors of bacterial viability. [Related pubchem assays (depositor defined):AID435030, AID449728, AID449731, AID488942, AID488955, AID488956]; type: functional
[19] = target: Galanin receptor type 3 (Homo sapiens, UniProt O60755); assay: Fluorescence-based cell-based primary high throughput dose response assay to identify antagonists of the Galanin Receptor 3 (GalR3).; type: functional
[20] = cells; type: functional, cell-based; conditions: HEK-CNG
[21] = cells

Chain of Paired box protein Pax-8 (Q06710 whole entry): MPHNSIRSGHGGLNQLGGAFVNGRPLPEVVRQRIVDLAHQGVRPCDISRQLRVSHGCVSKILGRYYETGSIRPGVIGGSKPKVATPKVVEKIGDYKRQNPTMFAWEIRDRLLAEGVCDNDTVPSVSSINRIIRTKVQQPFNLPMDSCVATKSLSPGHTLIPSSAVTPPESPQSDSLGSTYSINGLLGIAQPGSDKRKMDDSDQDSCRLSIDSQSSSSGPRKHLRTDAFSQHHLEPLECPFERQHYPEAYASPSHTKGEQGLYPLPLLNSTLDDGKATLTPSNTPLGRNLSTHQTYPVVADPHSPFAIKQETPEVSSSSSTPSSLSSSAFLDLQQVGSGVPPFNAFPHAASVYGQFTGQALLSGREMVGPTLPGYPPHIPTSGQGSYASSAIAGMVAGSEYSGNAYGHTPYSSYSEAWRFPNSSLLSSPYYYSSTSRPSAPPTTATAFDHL
Chain of Nonstructural protein 1 (Q194T2 whole entry): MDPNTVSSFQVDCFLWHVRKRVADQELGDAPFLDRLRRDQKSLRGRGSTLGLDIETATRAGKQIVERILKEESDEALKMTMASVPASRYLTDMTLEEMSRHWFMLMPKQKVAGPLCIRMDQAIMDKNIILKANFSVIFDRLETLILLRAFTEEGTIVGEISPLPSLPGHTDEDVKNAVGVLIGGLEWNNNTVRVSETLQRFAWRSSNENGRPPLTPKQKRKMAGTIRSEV
Chain of Disintegrin and metalloproteinase domain-containing protein 17 (P78536 whole entry, the tested form may be a part): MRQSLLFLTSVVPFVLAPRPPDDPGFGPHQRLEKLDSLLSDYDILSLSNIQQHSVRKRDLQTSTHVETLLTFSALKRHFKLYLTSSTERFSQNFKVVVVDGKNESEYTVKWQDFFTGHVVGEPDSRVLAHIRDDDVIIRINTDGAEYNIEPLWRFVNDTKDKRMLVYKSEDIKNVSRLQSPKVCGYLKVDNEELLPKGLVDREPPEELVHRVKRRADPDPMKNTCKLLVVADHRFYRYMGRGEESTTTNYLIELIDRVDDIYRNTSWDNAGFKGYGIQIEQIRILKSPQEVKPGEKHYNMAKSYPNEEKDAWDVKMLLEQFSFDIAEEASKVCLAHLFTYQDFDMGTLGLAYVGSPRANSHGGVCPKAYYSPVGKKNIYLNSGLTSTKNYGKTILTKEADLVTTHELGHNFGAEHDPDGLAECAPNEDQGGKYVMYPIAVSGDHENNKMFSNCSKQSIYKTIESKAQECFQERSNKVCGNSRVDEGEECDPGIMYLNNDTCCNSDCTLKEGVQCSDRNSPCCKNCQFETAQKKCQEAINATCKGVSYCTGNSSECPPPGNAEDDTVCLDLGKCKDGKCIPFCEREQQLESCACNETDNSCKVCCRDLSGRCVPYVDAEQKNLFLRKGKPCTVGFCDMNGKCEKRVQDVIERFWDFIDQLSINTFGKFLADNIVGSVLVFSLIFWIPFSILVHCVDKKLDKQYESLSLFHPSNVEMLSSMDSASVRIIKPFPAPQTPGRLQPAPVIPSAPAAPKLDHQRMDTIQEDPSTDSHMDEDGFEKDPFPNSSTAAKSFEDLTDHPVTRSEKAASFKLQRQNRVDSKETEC
Chain of Potassium channel subfamily K member 3 (Rattus norvegicus, UniProt O54912) (O54912 whole entry, the tested form may be a part): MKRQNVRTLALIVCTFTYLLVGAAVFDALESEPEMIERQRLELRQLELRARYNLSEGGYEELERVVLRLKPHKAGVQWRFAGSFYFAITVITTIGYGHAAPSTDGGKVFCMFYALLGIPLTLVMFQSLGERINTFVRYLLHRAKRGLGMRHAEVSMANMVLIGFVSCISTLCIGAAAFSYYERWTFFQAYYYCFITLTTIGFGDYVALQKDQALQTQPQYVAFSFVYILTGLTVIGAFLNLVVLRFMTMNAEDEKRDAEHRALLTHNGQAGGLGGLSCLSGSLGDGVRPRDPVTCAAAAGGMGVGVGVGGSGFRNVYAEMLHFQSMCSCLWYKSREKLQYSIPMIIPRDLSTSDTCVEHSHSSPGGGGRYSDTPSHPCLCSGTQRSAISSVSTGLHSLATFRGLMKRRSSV
Chain of Potassium channel subfamily K member 3 (Homo sapiens, UniProt O14649) (O14649 whole entry): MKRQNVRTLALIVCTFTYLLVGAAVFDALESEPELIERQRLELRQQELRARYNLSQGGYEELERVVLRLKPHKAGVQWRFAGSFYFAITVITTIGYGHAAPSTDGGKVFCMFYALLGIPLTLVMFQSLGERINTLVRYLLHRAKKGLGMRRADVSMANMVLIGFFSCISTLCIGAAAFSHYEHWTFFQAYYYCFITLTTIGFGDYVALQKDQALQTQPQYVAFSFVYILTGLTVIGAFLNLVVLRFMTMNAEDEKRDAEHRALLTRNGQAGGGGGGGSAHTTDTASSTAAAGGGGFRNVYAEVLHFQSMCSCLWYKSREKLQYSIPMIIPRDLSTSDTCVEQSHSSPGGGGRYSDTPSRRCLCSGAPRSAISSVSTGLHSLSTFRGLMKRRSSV
Chain of Ion channel NompC (Q7T1G6 whole entry): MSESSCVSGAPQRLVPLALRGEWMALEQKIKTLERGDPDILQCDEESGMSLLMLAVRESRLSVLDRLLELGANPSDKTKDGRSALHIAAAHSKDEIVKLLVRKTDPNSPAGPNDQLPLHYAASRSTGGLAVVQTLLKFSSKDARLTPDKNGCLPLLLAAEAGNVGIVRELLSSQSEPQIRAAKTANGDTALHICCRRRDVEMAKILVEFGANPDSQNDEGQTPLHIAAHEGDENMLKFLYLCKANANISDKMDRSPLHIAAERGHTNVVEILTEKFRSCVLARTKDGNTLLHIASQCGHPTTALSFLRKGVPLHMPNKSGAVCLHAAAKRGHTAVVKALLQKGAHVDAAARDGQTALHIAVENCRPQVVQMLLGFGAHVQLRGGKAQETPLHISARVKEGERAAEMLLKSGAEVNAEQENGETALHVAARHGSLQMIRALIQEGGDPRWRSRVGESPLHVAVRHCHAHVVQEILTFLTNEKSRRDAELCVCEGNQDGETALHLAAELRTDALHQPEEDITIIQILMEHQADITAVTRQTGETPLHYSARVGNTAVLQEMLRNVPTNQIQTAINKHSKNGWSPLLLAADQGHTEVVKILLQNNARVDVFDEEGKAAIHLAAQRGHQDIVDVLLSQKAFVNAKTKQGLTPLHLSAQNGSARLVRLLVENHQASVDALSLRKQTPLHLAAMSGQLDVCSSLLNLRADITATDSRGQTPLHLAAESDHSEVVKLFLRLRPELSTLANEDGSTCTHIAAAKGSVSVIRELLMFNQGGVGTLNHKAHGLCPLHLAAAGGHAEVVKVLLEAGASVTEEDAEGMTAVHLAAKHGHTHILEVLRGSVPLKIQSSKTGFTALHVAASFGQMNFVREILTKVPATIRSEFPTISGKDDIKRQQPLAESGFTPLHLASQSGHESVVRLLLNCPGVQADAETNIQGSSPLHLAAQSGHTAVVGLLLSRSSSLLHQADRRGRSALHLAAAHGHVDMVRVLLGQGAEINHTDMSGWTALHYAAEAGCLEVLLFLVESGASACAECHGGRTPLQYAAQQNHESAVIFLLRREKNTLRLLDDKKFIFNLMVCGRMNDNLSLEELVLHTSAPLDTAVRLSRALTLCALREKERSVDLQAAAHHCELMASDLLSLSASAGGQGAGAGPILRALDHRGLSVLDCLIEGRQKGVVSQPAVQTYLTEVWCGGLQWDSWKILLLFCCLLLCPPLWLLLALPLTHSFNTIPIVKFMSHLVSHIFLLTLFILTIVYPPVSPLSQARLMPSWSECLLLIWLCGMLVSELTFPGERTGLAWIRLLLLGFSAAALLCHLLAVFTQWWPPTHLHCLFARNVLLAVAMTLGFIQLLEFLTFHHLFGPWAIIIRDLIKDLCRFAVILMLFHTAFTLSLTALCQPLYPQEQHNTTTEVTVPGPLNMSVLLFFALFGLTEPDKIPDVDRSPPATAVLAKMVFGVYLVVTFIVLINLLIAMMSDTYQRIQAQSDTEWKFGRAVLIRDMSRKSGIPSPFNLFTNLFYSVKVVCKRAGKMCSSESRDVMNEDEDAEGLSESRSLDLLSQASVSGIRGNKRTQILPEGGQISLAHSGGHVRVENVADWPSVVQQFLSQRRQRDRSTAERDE
Chain of Galanin receptor type 3 (O60755 whole entry): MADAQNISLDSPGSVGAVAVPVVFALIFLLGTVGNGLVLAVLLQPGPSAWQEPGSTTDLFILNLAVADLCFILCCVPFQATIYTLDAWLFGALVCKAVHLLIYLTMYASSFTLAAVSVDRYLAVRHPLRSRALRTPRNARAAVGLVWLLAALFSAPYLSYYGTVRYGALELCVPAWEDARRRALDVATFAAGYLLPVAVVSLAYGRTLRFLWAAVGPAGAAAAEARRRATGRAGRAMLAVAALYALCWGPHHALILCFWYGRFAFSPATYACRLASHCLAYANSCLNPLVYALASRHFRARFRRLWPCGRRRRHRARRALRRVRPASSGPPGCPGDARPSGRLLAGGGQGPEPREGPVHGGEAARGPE
Chain of Potassium channel subfamily K member 9 (Q9NPC2 whole entry, the tested form may be a part): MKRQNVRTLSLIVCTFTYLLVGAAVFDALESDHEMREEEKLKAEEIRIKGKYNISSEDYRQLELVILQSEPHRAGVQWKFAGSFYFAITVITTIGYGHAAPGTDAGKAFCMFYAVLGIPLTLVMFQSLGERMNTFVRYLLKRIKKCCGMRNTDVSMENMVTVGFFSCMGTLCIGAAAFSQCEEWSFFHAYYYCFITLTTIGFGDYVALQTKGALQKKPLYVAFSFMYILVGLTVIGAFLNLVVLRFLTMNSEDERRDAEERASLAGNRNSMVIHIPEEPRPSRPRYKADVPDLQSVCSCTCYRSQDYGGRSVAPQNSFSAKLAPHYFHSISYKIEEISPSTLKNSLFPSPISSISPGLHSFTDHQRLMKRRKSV

CCOC(=O)c1c(CSc2ccc(C)cc2)oc2ccc(O)cc12
EC50 [1]: 4.33 µM (active)
EC50 [2]: > 29.9 µM (not active)
AC50 [3]: 3.94 µM (active)
IC50 [4]: > 69.6 µM (inactive)

COc1ccccc1NC(=O)c1cccc(NC(=O)c2ccccc2C(F)(F)F)c1
IC50 [5]: 1.32 µM (active)
IC50 [6]: 0.149 µM (active)
IC50 [7]: 0.042 µM (active)

C[C@@H]1CN([C@@H](C)CO)C(=O)c2cc(NS(=O)(=O)c3ccc(F)cc3)ccc2O[C@@H](C)CCCCO[C@@H]1CN(C)Cc1ccc(C(F)(F)F)cc1
AC50 [8]: 8.92 µM (active)
AC50 [9]: 62.8 µM (active)
AC50 [10]: 40.5 µM (active)
AC50 [11]: 57.6 µM (active)
AC50 [12]: 55.4 µM (active)

CC(C)N1C[C@H](C)[C@@H](CN(C)C(=O)OC(C)(C)C)Oc2c(C#N)cccc2C1=O
IC50 [13]: > 20 µM (inactive)

C=CCN1/C(=C/c2ccc3cc(C)ccc3[n+]2CC)C=Cc2ccccc21
EC50 [14]: < 0.1 µM (active)
EC50 [15]: 6.53 µM (active)
IC50 [16]: > 39.5 µM (inactive)
IC50 [17]: 11.7 µM (active)
IC50 [18]: 35.8 µM (inactive)
IC50 [19]: > 0.123 µM (active)
EC50 [20]: > 29.9 µM (inactive)
EC50 [21]: 0.054 µM (active)
